Read-outs that look alike come from different tables or passages of the source.
How the values were obtained:
[1] = tested on: ERK phosphorylation (Thr 202/Tyr 204) in NCI-H1373 cells; assay: ERK phosphorylation inhibitory action in NCI-H1373 (Cell ELISA); format: cell-based, Human; settings: Homo sapiens, NCI-H1373, 2 h, read-out: IC50 (ERK phosphorylation inhibition)
Procedure: Evaluation of ERK Phosphorylation Inhibitory Action with Respect to Human KRAS G12C Mutation Positive Non-Small Cell Lung Cancer Strain NCI-H1373
The ERK phosphorylation inhibitory action by the test compound was evaluated by measuring phosphorylation of 202th threonine (Thr 202) and 204th tyrosine (Tyr 204) of ERK on the downstream of the KRAS signal by Cell ELISA.
NCI-H1373 cells (ATCC, CRL-5866) were seeded in 384 well plates (Greiner bio-one) at 36 μL/well each so as to be 2×10^4 cell per well. Cell culture was performed under the conditions of temperature of 37° C. in the presence of 5% CO2 by using RPMI 1640 medium (Sigma-Aldrich Co. LLC) containing 10% fetal bovine serum (GE Life Sciences).
The next day, the test compounds (six points in a range of final concentration 1,000 nM to 0.3 nM), final concentration 1 μM of Trametinib (GlaxoSmithKline Inc.; MEK inhibitor) as a positive control, and DMSO which is a solvent of the test compound as a negative control were diluted 100-fold with fresh medium, 4 μL each was added to each well, and then cultured for 2 hours. Immediately after culturing, 30 μL of 30% glyoxal solution (Wako: 40% glyoxal diluted with Phosphate Buffered Saline (PBS; Wako)) was added to each well, and the cells were left to stand at room temperature for one hour to be fixed. Thereafter, the supernatant was removed by centrifuging the plate (110×g for 7 seconds, unless otherwise stated below under the same conditions), and 20 μL of PBS containing 0.1% Triton X-100 (Amersham Biosciences Corp.) was added to each well. After being left to stand at room temperature for 10 minutes, the supernatant was removed by centrifugation, and the same operation was repeated. Next, 20 μL of PBS containing 0.5% SDS (Invitrogen) was added to each well, and the mixture was left to stand at room temperature for 30 minutes, and then centrifuged to remove the supernatant. Subsequently, 20 μL of a blocking solution (ODYSSEY Blocking Buffer; LI-COR Biosciences) was added to each well, and left to stand at room temperature for one hour. The supernatant was removed by centrifugation, and 10 μL of a blocking solution prepared by diluting ERK (Thr 202/Tyr 204) of a phosphorylation antibody (Cell Signaling Technology, Inc.) as a primary antibody to be ½, 500 amount with respect to a stock solution was added to each well and was left to stand at 4° C. for overnight.
The next day, a reaction liquid is removed by centrifuging the plate, 20 μL of 0.05% Tween-20-containing PBS (Thermo Scientific; 20×PBS Tween-20 diluted 20-fold with ion exchanged water) was added to each well, and each well was washed by removing the supernatant by centrifugation. Washing was performed three times in total. After washing, 10 μL of a blocking solution prepared by diluting IRDye 800CW Goat anti-Rabbit IgG (LI-COR Biosciences) as a secondary antibody to be 1/1,000 amount with respect to a stock solution was added to each well and was left to stand at room temperature for one hour. The reaction liquid was removed by centrifuging the plate, and each well was washed three times with 0.05% Tween-20-containing PBS in the same manner as after primary antibody reaction. The centrifugation after the third wash was 171×g for 17 seconds. After removal of the cleaning solution, the plate was left to air dry at room temperature for three hours or more and the fluorescent signal at 800 nm was measured by Aerius (LI-COR Biosciences).
When a signal value at the time of adding DMSO was set as 0% inhibition, and a signal value at the time of adding 1 μM of Trametinib was set as 100% inhibition, a value of 50% inhibition (IC50) was calculated through Sigmoid-Emax model nonlinear regression analysis.

[2] = target: T1, KRAS G12C/SOS/c-Raf complex (Homo sapiens, UniProt P01116, G12C); assay: KRAS G12C/SOS/c-Raf complex formation inhibitory action (TR-FRET); format: biochemical; settings: one hour at room temperature, read-out: IC50 (KRAS G12C/SOS/c-Raf complex formation inhibition)
T1 construct: Biotinylated AviTag-KRAS G12C (amino acid region 1-185, GDP)
T1 sequence (P01116 1-185 isoform P01116-2 G12C, one chain of several): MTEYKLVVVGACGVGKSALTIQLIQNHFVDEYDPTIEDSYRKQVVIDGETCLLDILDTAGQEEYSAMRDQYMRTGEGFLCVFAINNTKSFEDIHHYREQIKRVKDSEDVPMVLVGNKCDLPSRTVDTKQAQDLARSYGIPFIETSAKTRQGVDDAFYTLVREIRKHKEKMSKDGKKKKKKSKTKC
Procedure: Evaluation of KRAS G12C/SOS/c-Raf Complex Formation Inhibitory Action
Human Recombinant KRAS G12C, SOS, and c-Raf protein were used, and with respect to the complex formation of these proteins, an inhibitory action of the test compound was examined through a time-resolved fluorescence resonance energy transfer (TR-FRET) method.
Biotinylated AviTag-KRAS G12C (amino acid region 1-185, GDP) (2.5 μL; 400 nM) dissolved in assay buffer (50 mM HEPES, 150 mM NaCl, 5 mM MgCl2, 0.05% Tween 20, pH 7.4) and test compound were added in a volume of 2.5 μL from 4,000 nM to 4 nM were added to 384 well plate (Corning Inc). Son of Sevenless (SOS) (amino acid region 564-1049, 2.5 μL; 1.3 μM) and c-Raf (amino acid region 51-131) GST containing GTP (Sigma-Aldrich Co. LLC) (2.5 μL; 130 nM and 4 μM of each) were added to the above mixture, and the resultant was left to stand for one hour at room temperature. Thereafter, a mixed solution (10 μL) of LANCE Ulight-anti-GST (120 nM, PerkinElmer. Co., Ltd) and LANCE Eu-W1024 labeled Streptoavidin (100 ng/mL, PerkinElmer. Co., Ltd) was added, and a fluorescence intensity on the condition of wavelength of 620 nm and 665 nm was measured by using EnVision 2103 Multilabel Reader (PerkinElmer Co., Ltd.) under the condition of excitation wavelength of 337 nm. […] In Tables, Ex represents Example numbers described later. In addition, in Tables, Compound C represents a test compound of Example I-59 disclosed in Pamphlet of International Publication No. WO 2016/164675, and the structures of Reference Example 1 and Reference Example 2 are indicated in Table 168 described below (the same shall apply hereinafter).

NCI-H1373 cells = assay: Anchorage-independent cell proliferation inhibitory action, NCI-H1373 spheroid three-dimensional culture; format: cell-based, Human; settings: Homo sapiens, NCI-H1373, 144 h, read-out: IC50 (anchorage-independent cell proliferation inhibition)
Procedure: Evaluation of Anchorage-Independent Cell Proliferation Inhibitory Action with Respect to Human KRAS G12C Mutation Positive Non-Small Cell Lung Cancer Strain NCI-H1373
An anchorage-independent cell proliferation inhibitory action by the test compound was evaluated by a spheroid three-dimensional culture.
NCI-H1373 cells were seeded in cell low adsorption U bottom 384 well plates (Prime Surface: Sumitomo Bakelite Co., Ltd.) at 36 μL/well each so as to be 5×10^2 cell per well. The cell culture was performed under the same conditions as Test example 2.
The next day, the test compounds (six points in a range of final concentration 1,000 nM to 0.3 nM) and DMSO which is a solvent of the test compound as a negative control were diluted 100-fold with fresh medium, 4 μL each was added to each well. After culturing at 37° C. in the presence of 5% CO2 for six days, 20 μL of CellTiter Glo or to CellTiter Glo 2.0 (Promega Corporation) was added to each well. After stirring for one hour at room temperature using a plate mixer (FINEPCR), an emission signal was measured with ARVO X3 (PerkinElmer Co., Ltd.).
When a signal value in a DMSO treatment was set as 0% inhibition, and a signal value in cell-free medium only was set as 100% inhibition, a value of 50% inhibition (IC50) was calculated through Sigmoid-Emax model nonlinear regression analysis.

[3] = NCI-H1373 cells, cultured for 2 hours, 100% = 1 μM Trametinib
[4] = NCI-H1373 spheroid, six days, CellTiter Glo

SMILES | IC50 [1, 3] | IC50 [2] | IC50 (NCI-H1373 cells; [4]) | IC50 [1] | IC50 (NCI-H1373 cells)
C=CC(=O)N1CC2(CCN(c3nc(OC4CCN(CC(F)(F)F)CC4)nc4c(OCC(F)(F)F)c(-c5c(C)ccc6[nH]ncc56)c(C=C)cc34)CC2)C1 [Example 80] | 16 nM | 166 nM | 75 nM | – | –
C=CC(=O)N1CC2(CCN(c3nc(OC4CCN(CC)CC4)nc4c(OC5CC(F)(F)C5)c(-c5c(C)ccc6[nH]ncc56)c(C=C)cc34)CC2)C1 [Example 11] | 10 nM | 38 nM | 12 nM | – | –
C=CC(=O)N1CC2(CCN(c3nc(OC4CCN(CCOC)CC4)nc4c(OCC)c(-c5c(C)ccc6[nH]ncc56)c(C=C)cc34)CC2)C1 [Example 13] | – | 37 nM | – | 11 nM | 13 nM
C=CC(=O)N1CC2(CCN(c3nc(OC4CCN(C(CF)CF)CC4)nc4c(OCC(F)(F)F)c(-c5c(C)ccc6[nH]ncc56)c(C=C)cc34)CC2)C1 [Example 55] | 7.4 nM | 83 nM | 43 nM | – | –
C=CC(=O)N1CC2(CCN(c3nc(OC4CCN(CC)CC4)nc4c(OCC)c(-c5c(Cl)ccc6[nH]ncc56)c(C=C)cc34)CC2)C1 [Example 21] | 14 nM | 65 nM | 27 nM | – | –
C=CC(=O)N1CC2(CCN(c3nc(OC4CCN(CCOC)CC4)nc4c(OCC(F)(F)F)c(-c5cccc6[nH]ncc56)c(C5CC5)cc34)CC2)C1 [Example 87] | 18 nM | 39 nM | 35 nM | – | –
C=CC(=O)N1CC2(CCN(c3nc(OC4CCN(C(C)C)CC4)nc4c(OCC)c(-c5c(C)ccc6[nH]ncc56)c(C=C)cc34)CC2)C1 [Example 12] | – | 23 nM | – | 6.7 nM | 11 nM
C=CC(=O)N1CC2(CCN(c3nc(OC4CCN(CCOCC5CC5)CC4)nc4c(OCC(F)(F)F)c(-c5c(C)ccc6[nH]ncc56)c(C=C)cc34)CC2)C1 [Ex 41] | 6.2 nM | 42 nM | 14 nM | – | –
C=CC(=O)N1CC2(CCN(c3nc(OC4CCN(C)CC4)nc4c(OCC(C)(F)F)c(-c5c(C)ccc6[nH]ncc56)c(C=C)cc34)CC2)C1 [Example 63] | 6.6 nM | 53 nM | 14 nM | – | –
COCCN1CCC(Oc2nc(N3CCC4(CC3)CN(C(=O)/C=C/C(F)(F)F)C4)c3cc(C4CC4)c(-c4c(C)ccc5[nH]ncc45)c(OCC(F)F)c3n2)CC1 [Ex 82] | 16 nM | 43 nM | 62 nM | – | –
C=CC(=O)N1CC2(CCN(c3nc(OC4CCN(CCS(C)(=O)=O)CC4)nc4c(OCC(F)(F)F)c(-c5c(C)ccc6[nH]ncc56)c(C=C)cc34)CC2)C1 [Example 81] | 16 nM | 41 nM | 26 nM | – | –
C=CC(=O)N1CC2(CCN(c3nc(OC4CCN(CCOC)CC4)nc4c(OCC(F)(F)C(F)(F)F)c(-c5c(C)ccc6[nH]ncc56)c(C=C)cc34)CC2)C1 [Example 79] | 16 nM | 57 nM | 43 nM | – | –
C=CC(=O)N1CC2(CCN(c3nc(OC4CCN(CCC(F)(F)F)CC4)nc4c(OCC(F)(F)F)c(-c5c(C)ccc6[nH]ncc56)c(C=C)cc34)CC2)C1 [Example 60] | 8.8 nM | 98 nM | 35 nM | – | –
C=CC(=O)N1CC2(CCN(c3nc(SC4CCN(C)CC4)nc4c(OCC(F)(F)F)c(-c5c(C)ccc6[nH]ncc56)c(C=C)cc34)CC2)C1 [Ex 51] | 8.9 nM | 59 nM | 24 nM | – | –
C=CC(=O)N1CC2(CCN(c3nc(OC4CCS(=O)(=O)CC4)nc4c(OCC(F)(F)F)c(-c5c(C)ccc6[nH]ncc56)c(C=C)cc34)CC2)C1 [Example 75] | 15 nM | 51 nM | 43 nM | – | –
C=CC(=O)N1CC2(CCN(c3nc(OC[C@@H]4CCCN4C)nc4c(OCC)c(-c5c(C)ccc6[nH]ncc56)c(C5CC5)cc34)CC2)C1 [Example 23] | 4.9 nM | 39 nM | 5.9 nM | – | –
C=CC(=O)N1CC2(CCN(c3nc(OC4CCCN(C)CC4)nc4c(OCC(F)(F)F)c(-c5c(C)ccc6[nH]ncc56)c(C=C)cc34)CC2)C1 (stereo not drawn) [Example 69] | 12 nM | 50 nM | 17 nM | – | –
C=CC(=O)N1CC2(CCN(c3nc(OC4CCN(S(C)(=O)=O)CC4)nc4c(OCC(F)(F)F)c(-c5c(C)ccc6[nH]ncc56)c(C=C)cc34)CC2)C1 [Example 86] | 12 nM | 72 nM | 37 nM | – | –
C=CC(=O)N1CC2(CCN(c3nc(OCCCN(C)C)nc4c(OCC(F)(F)F)c(-c5c(C)ccc6[nH]ncc56)c(C=C)cc34)CC2)C1 [Example 71] | 14 nM | 40 nM | 10 nM | – | –
C=CC(=O)N1CC2(CCN(c3nc(OC[C@@H]4CCCN4C)nc4c(OC)c(-c5c(C)ccc6[nH]ncc56)c(C=C)cc34)CC2)C1 [Reference example 2, reference compound] | 17 nM | 35 nM | 22 nM | – | –

From patent US10774082B2, “Quinazoline compound” (Astellas Pharma Inc., priority 2017, dated 2020)
